Columns and labels:
Details in all cases: incubation time: 72 h
BT-474 [1] = test: normalised response (% of control), CellTox Green; higher = less cell death (100 = DMSO, 0 = benzethonium chloride kill control)
How it was run: (§1)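 In 384-well plates holding compound at 5 concentrations in 10-fold steps over a 10,000-fold range specific to each compound, breast cancer cell lines were seeded as 20 µl suspension and incubated 72 h. CellTox Green fluorescence was measured at 485/520 nm, after which CellTiter-Glo luminescence was measured following 10 min at room temperature. Plate signals were normalised to 0.1 % DMSO (100) and a positive kill control (0), and each value is the normalised signal at a single concentration.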

BT-549 [2] = test: as above
How it was run: as §1

CAL-120 [3] = test: as above
How it was run: as §1

CAL-148 [4] = test: as above
How it was run: as §1

CAL-51 [5] = test: as above
How it was run: as §1

CAL-85-1 [6] = test: as above
How it was run: as §1

DU-4475 [7] = test: as above
How it was run: as §1

HCC1143 [8] = test: as above
How it was run: as §1

HCC1599 [9] = test: as above
How it was run: as §1

HCC1937 [10] = test: as above
How it was run: as §1

HDQ-P1 [11] = test: as above
How it was run: as §1

Hs578T [12] = test: as above
How it was run: as §1

MCF-10A [13] = test: as above
How it was run: as §1

MDA-MB-231 [14] = test: as above
How it was run: as §1

MDA-MB-436 [15] = test: as above
How it was run: as §1

MDA-MB-453 [16] = test: as above
How it was run: as §1

MDA-MB-468 [17] = test: as above
How it was run: as §1

MFM-223 [18] = test: as above
How it was run: as §1

BT-474 [19] = test: normalised response (% of control), CellTiter-Glo; higher = more viable cells (100 = DMSO, 0 = benzethonium chloride kill control)
How it was run: as §1

BT-549 [20] = test: as above
How it was run: as §1

CAL-120 [21] = test: as above
How it was run: as §1

CAL-148 [22] = test: as above
How it was run: as §1

CAL-51 [23] = test: as above
How it was run: as §1

CAL-85-1 [24] = test: as above
How it was run: as §1

DU-4475 [25] = test: as above
How it was run: as §1

HCC1143 [26] = test: as above
How it was run: as §1

HCC1599 [27] = test: as above
How it was run: as §1

HCC1937 [28] = test: as above
How it was run: as §1

HDQ-P1 [29] = test: as above
How it was run: as §1

Hs578T [30] = test: as above
How it was run: as §1

MCF-10A [31] = test: as above
How it was run: as §1

MDA-MB-231 [32] = test: as above
How it was run: as §1

MDA-MB-436 [33] = test: as above
How it was run: as §1

MDA-MB-453 [34] = test: as above
How it was run: as §1

MDA-MB-468 [35] = test: as above
How it was run: as §1

MFM-223 [36] = test: as above
How it was run: as §1

SK-BR-3 = test: as above
How it was run: as §1

Row | Structure (SMILES) | normalised response (BT-474 [1]) [%] | normalised response (BT-549 [2]) [%] | normalised response (CAL-120 [3]) [%] | normalised response (CAL-148 [4]) [%] | normalised response (CAL-51 [5]) [%] | normalised response (CAL-85-1 [6]) [%] | normalised response (DU-4475 [7]) [%] | normalised response (HCC1143 [8]) [%] | normalised response (HCC1599 [9]) [%] | normalised response (HCC1937 [10]) [%] | normalised response (HDQ-P1 [11]) [%] | normalised response (Hs578T [12]) [%] | normalised response (MCF-10A [13]) [%] | normalised response (MDA-MB-231 [14]) [%] | normalised response (MDA-MB-436 [15]) [%] | normalised response (MDA-MB-453 [16]) [%] | normalised response (MDA-MB-468 [17]) [%] | normalised response (MFM-223 [18]) [%] | normalised response (BT-474 [19]) [%] | normalised response (BT-549 [20]) [%] | normalised response (CAL-120 [21]) [%] | normalised response (CAL-148 [22]) [%] | normalised response (CAL-51 [23]) [%] | normalised response (CAL-85-1 [24]) [%] | normalised response (DU-4475 [25]) [%] | normalised response (HCC1143 [26]) [%] | normalised response (HCC1599 [27]) [%] | normalised response (HCC1937 [28]) [%] | normalised response (HDQ-P1 [29]) [%] | normalised response (Hs578T [30]) [%] | normalised response (MCF-10A [31]) [%] | normalised response (MDA-MB-231 [32]) [%] | normalised response (MDA-MB-436 [33]) [%] | normalised response (MDA-MB-453 [34]) [%] | normalised response (MDA-MB-468 [35]) [%] | normalised response (MFM-223 [36]) [%] | normalised response (SK-BR-3) [%]
1 | Cc1ccc(F)c(NC(=O)Nc2ccc(-c3cccc4[nH]nc(N)c34)cc2)c1 [Linifanib] (10 nM) | 99.7 | 96.7 | 99.2 | 108 | 109 | 97.2 | 102 | 108 | 111 | 104 | 112 | 87 | 56.1 | 91.7 | 72.8 | 108 | 121 | 108 | 107 | 96.7 | 102 | 112 | 102 | 92.7 | 105 | 107 | 108 | 99.5 | 97.3 | 105 | 110 | 111 | 108 | 97.2 | 106 | 106 | 103
2 | S=c1[nH]cnc2nc[nH]c12 [Mercaptopurine] (100 nM) | 91.2 | 94.6 | 98.4 | 95.9 | 94.5 | 108 | 98.8 | 91.9 | 98 | 101 | 66.2 | 92.4 | 99.5 | 80.6 | 102 | 103 | 134 | 82.7 | 95.1 | 104 | 92.5 | 81.7 | 96.9 | 90.8 | 96.8 | 104 | 91.3 | 94 | 105 | 96.6 | 94.6 | 101 | 96.1 | 95.5 | 88.4 | 98.5 | 98.3
3 | Clc1ccc(C(c2ccccc2Cl)C(Cl)Cl)cc1 (configuration not stated) [Mitotane] (100 nM) | 100 | 94.6 | 92 | 101 | 101 | 105 | 97.9 | 92.2 | 100 | 95 | 95.8 | 91.4 | 78.6 | 95.5 | 88.1 | 106 | 120 | 77.9 | 94 | 99.6 | 97.8 | 96.2 | 94.8 | 101 | 97.2 | 100 | 93.7 | 95.4 | 102 | 95.3 | 92.2 | 98.7 | 97.8 | 95.5 | 92.9 | 95.6 | 97.7
4 | C=CC[C@@H]1/C=C(\C)C[C@H](C)C[C@H](OC)[C@H]2O[C@@](O)(C(=O)C(=O)N3CCCC[C@H]3C(=O)O[C@H](/C(C)=C/[C@@H]3CC[C@@H](O)[C@H](OC)C3)[C@H](C)[C@@H](O)CC1=O)[C@H](C)C[C@@H]2OC [Tacrolimus] (100 nM) | 100 | 104 | 100 | 82 | 91 | 93.4 | 100 | 99.5 | 95.4 | 107 | 69.4 | 95.7 | 57.2 | 104 | 103 | 97.8 | 186 | 101 | 100 | 98.2 | 98.8 | 111 | 77.2 | 94.6 | 101 | 101 | 95.9 | 98 | 97.7 | 96.5 | 102 | 110 | 96.4 | 103 | 93 | 106 | 89.7
5 | CO[C@H]1C[C@@H]2CC[C@@H](C)[C@@](O)(O2)C(=O)C(=O)N2CCCC[C@H]2C(=O)O[C@H]([C@H](C)C[C@@H]2CC[C@@H](OC(=O)C(C)(CO)CO)[C@H](OC)C2)CC(=O)[C@H](C)/C=C(\C)[C@@H](O)[C@@H](OC)C(=O)[C@H](C)C[C@H](C)/C=C/C=C/C=C/1C [Temsirolimus] (1 nM) | 89.6 | 109 | 102 | 96.7 | 94.9 | 97.9 | 97.5 | 117 | 109 | 118 | 113 | 66.9 | 99.6 | 94.2 | 99.8 | 100 | 135 | 90.2 | 90.8 | 68.4 | 83.4 | 82.5 | 68.3 | 74.8 | 92.3 | 77.4 | 111 | 77.8 | 94.4 | 69.9 | 102 | 98.8 | 87.2 | 88.4 | 56.3 | 79.6 | 68.7
6 | CC[C@]1(O)C[C@@H]2CN(CCc3c([nH]c4ccccc34)[C@@](C(=O)OC)(c3cc4c(cc3OC)N(C)[C@H]3[C@@](O)(C(=O)OC)[C@H](OC(C)=O)[C@]5(CC)C=CCN6CC[C@]43[C@@H]65)C2)C1 [Vinblastine] (10 nM) | 72.6 | 65.2 | 73.6 | 82.7 | 30.4 | 31.4 | 102 | 92 | 84.7 | 92.3 | 40.4 | 71.2 | 16.4 | -19.5 | 44.7 | 98 | 110 | 69.6 | 58.2 | 39.1 | 51.5 | 70.8 | 58.1 | 29.4 | 96.1 | 48.6 | 70.4 | 71 | 76.1 | 55.4 | 51.6 | 57.8 | 36 | 57.4 | 33.9 | 77.1 | 12.3
